Each structure is given as a SMILES string.

The values that follow come from patent US20240124504A1, “AROMATIC HETEROCYCLIC COMPOUND, AND PHARMACEUTICAL COMPOSITION AND APPLICATION THEREOF” (GT APEIRON THERAPEUTICS LIMITED, priority 2020, published 2024).

In one data set the test system is Caco-2 cells. The experiment in a line: Caco-2 membrane permeability and efflux rate. Type of data set: in vitro ADME. The note with it: Caco-2, 5 μM, 2 hours; for Papp(B-A): basal end to top end; for Papp(A-B): top end to basal end. A digest of the protocol:
(§1)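 Caco-2 monolayers after 14-18 days' culture; compound at 5 μM final in HBSS (10 mM HEPES, pH 7.4), apical-to-basal and basal-to-apical, 2 h at 37° C. LC/MS/MS gives Papp (10-6 cm/s) and efflux ratio; lucifer yellow checks monolayer integrity.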
For orientation: Caco-2 monolayers are a common model of the intestinal barrier.

Data set [1] has as its system human breast cancer cells HCC70. Kind of data set: Cell biological activity detection (CyQuant, 72 hours), HCC70. Type of data set: cell-based. The note with it: incubation for 72 hours. Put shortly:
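A2780 and HCC70 cells seeded at 2000/well in RPMI 1640 + 10% FBS, treated next day with 9-point compound dilutions (top 10 μM, 1:4; 0.2% DMSO) for 72 h at 37 °C. Cell number read by CyQuant Direct nucleic acid stain (ex 488 nm); IC50 from dose–response fit.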

Data set [2] deals with CDK7/cyclinH/MAT1 complex (Homo sapiens, UniProt P50613). Kind of data set: In-vitro enzymatic inhibitory activity testing, CDK7 inhibition assay (Caliper EZ Reader II). Type of data set: biochemical. The following applies: CDK7/cyclinH/MAT1 6 nM, 180 min at 27° C. A digest of the protocol:
(§2)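 Enzyme preincubated 10 min with compound, then peptide substrate plus ATP added in 80 mM MES pH 6.5, 10 mM MgCl2 buffer; 180 min at 27 °C, stopped with EDTA.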

For the next data set, the target named is CDK9/cyclinT1 complex (Homo sapiens, UniProt P50750). Kind of data set: In-vitro enzymatic inhibitory activity testing, CDK9 inhibition assay (Caliper EZ Reader II). It is filed as biochemical. The note with it: CDK9/cyclinT1 8 nM, 180 min at 27° C. Put shortly:
as §2

Data set [3] in a line: Caco-2 membrane permeability and efflux rate. The following applies: human, Caco-2, Caco-2, 5 μM; for Papp B→A at 2 h, 5 μM: basal end to top end; for efflux ratio at 2 h, 5 μM: read-out: ER (efflux rate); for Papp A→B at 2 h, 5 μM: top end to basal end. Type of data set: in vitro ADME. Put shortly:
as §1

CDK9/cyclinT1 complex, sequence (P50750 whole entry, species assumed): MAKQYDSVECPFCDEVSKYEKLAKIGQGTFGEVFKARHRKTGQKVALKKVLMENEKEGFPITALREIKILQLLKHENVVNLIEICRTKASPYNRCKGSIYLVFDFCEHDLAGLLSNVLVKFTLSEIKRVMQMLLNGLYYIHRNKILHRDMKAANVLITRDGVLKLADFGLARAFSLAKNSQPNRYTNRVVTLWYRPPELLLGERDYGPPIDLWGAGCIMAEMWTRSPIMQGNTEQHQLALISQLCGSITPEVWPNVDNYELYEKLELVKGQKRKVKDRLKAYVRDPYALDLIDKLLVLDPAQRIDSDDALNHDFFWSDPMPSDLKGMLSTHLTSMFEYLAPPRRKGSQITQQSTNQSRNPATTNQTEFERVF
CDK9/cyclinT1 complex, sequence (O60563 whole entry partner, species assumed): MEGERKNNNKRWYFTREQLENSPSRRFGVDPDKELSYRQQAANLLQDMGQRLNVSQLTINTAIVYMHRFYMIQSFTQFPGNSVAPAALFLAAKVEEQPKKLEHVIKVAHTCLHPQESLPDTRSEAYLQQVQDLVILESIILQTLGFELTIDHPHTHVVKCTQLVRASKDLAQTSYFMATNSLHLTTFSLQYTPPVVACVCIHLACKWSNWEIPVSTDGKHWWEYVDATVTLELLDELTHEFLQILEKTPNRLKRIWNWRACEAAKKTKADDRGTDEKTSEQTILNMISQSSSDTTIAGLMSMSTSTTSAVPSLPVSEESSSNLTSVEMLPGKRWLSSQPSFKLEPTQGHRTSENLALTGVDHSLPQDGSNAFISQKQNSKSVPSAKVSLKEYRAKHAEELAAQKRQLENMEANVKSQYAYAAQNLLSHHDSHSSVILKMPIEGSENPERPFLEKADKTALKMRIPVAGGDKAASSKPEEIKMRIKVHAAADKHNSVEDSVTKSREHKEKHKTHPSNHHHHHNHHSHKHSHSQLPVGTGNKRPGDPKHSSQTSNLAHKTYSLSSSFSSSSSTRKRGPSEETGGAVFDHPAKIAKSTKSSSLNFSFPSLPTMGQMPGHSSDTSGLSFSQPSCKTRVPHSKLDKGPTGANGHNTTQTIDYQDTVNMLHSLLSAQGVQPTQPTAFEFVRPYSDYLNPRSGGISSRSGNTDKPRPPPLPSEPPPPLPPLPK
CDK7/cyclinH/MAT1 complex, sequence (P50613 whole entry, species assumed): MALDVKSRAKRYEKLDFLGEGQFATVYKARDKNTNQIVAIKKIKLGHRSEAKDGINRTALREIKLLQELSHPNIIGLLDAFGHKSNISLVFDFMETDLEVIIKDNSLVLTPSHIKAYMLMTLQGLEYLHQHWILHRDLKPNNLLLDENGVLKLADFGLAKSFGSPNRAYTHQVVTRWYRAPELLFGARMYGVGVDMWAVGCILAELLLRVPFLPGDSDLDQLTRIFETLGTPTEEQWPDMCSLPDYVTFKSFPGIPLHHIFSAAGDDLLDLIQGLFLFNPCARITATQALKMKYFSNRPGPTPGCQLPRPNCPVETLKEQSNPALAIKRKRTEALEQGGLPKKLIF
CDK7/cyclinH/MAT1 complex, sequence (P51946 whole entry partner, species assumed): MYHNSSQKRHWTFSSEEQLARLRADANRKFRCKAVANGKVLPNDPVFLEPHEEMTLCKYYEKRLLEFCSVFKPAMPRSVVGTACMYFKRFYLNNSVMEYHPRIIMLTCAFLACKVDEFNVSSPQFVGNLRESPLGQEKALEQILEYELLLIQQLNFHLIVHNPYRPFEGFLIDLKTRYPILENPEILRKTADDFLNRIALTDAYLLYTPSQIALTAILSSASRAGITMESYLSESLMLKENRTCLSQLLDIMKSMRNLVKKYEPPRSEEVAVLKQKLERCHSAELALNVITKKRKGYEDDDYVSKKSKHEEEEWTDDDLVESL
CDK7/cyclinH/MAT1 complex, sequence (P51948 whole entry partner, species assumed): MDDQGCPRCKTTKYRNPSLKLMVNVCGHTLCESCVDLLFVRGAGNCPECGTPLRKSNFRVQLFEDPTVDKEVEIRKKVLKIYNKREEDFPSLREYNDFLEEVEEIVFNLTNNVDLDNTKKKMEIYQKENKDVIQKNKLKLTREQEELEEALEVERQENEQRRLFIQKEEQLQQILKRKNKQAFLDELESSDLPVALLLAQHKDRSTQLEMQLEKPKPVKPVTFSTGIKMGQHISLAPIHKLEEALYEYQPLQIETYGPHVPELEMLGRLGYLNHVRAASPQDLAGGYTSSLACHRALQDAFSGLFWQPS

`CP(C)(=O)c1cccc2c(-c3nc(NC4(CO)CCOC4)ncc3C(F)(F)F)c[nH]c12` (single isomer, unassigned) [Compound 119]: in the data set with Caco-2 cells, the “ER (efflux rate)” value is recorded as 15.3; the “Papp(B-A)” value is on record as 34.09 10^−6, cm/s; the “Papp(A-B)” value is given as 2.23 10^−6, cm/s. Also, the IC50 (in general, the point on the concentration scale where inhibition reaches its midpoint) in data set [1] was 20 to 200 nM. In data set [2], this molecule gave an IC50 of 20 to 200 nM. Also, on CDK9/cyclinT1 complex, the IC50 was > 50000 nM.

Consider `CC(O)[C@H](C)Nc1ncc(C(F)(F)F)c(-c2c[nH]c3c(P(C)(C)=O)cccc23)n1` (single isomer, unassigned) [Compound 130], for which, in the data set on Caco-2 cells, the “ER (efflux rate)” value is on record as 6.03; the “Papp(B-A)” value is on record as 35.08 10^−6, cm/s; the “Papp(A-B)” value is 5.82 10^−6, cm/s. In data set [1], the IC50 is 20 to 200 nM. In addition, in data set [2], the IC50 was < 20 nM. Also, the half-maximal inhibitory concentration (IC50) at CDK9/cyclinT1 complex is > 50000 nM.

In the case of `CC(CO)CNc1ncc(C(F)(F)F)c(-c2c[nH]c3c(P(C)(C)=O)cccc23)n1` (single isomer, unassigned) [Compound 150], in the data set with Caco-2 cells, the “ER (efflux rate)” value is listed as 5.95; the “Papp(B-A)” value was 27.87 10^−6, cm/s; the “Papp(A-B)” value is reported as 4.68 10^−6, cm/s. Further, in data set [1], the IC50 was < 20 nM. For the same molecule, the IC50 in data set [2] was < 20 nM. The IC50 against CDK9/cyclinT1 complex is > 50000 nM.

Regarding `CP(C)(=O)c1cccc2c(-c3nc(N[C@@H]4CCC[C@H]4O)ncc3C(F)(F)F)c[nH]c12` [Compound 156], in data set [3], the Papp B→A (usually how fast a substance crosses the layer from the basolateral side) at 2 h, 5 μM was determined as 20.6 ×10⁻⁶ cm/s; the efflux ratio at 2 h, 5 μM stood at 3.87; the Papp A→B (in general, the apparent permeability from the apical to the basolateral side of a cell layer) at 2 h, 5 μM was found to be 5.32 ×10⁻⁶ cm/s. For the same molecule, the IC50 in data set [1] (Homo sapiens, HCC70, 72 h) was < 20 nM. This molecule had an IC50 in data set [2] of 20 to 200 nM. Further, on CDK9/cyclinT1 complex, the IC50 lay within 5000 to 50000 nM.

For `CN(C)[C@H]1CC[C@H](Nc2ncc(C(F)(F)F)c(-c3c[nH]c4c(P(C)(C)=O)cccc34)n2)C1` [Compound 137, (3-(2-(((1S,3S)-3-(dimethylamino)cyclopentyl)amino)-5-(trifluoromethyl)pyrimidin-4-yl)-1H-indole-7-yl)dimethylphosphine oxide], in data set [3], the Papp B→A at 2 h, 5 μM amounted to 34.6 ×10⁻⁶ cm/s; the efflux ratio at 2 h, 5 μM is 12.4; the Papp A→B at 2 h, 5 μM was determined as 2.79 ×10⁻⁶ cm/s. For the same molecule, the IC50 in data set [1] (Homo sapiens, HCC70, 72 h) was < 20 nM. Besides, the IC50 in data set [2] was < 20 nM. For the same molecule, the 50% inhibitory concentration (IC50) on CDK9/cyclinT1 complex was in the range of 5000 to 50000 nM.

For `CP(C)(=O)c1cccc2c(-c3nc(NC[C@H]4C[C@](C)(O)C4)ncc3C(F)(F)F)c[nH]c12` [Compound 127, (3-(2-(((trans-3-hydroxy-3-methylcyclobutyl)methyl)amino)-5-(trifluoromethyl)pyrimidin-4-yl)-1H-indole-7-yl)dimethylphosphine oxide], in data set [3], the Papp B→A at 2 h, 5 μM was 22.4 ×10⁻⁶ cm/s; the efflux ratio at 2 h, 5 μM is 5.86; the Papp A→B at 2 h, 5 μM is 3.82 ×10⁻⁶ cm/s. Also, the IC50 in data set [1] (Homo sapiens, HCC70, 72 h) is < 20 nM. In addition, the IC50 in data set [2] was < 20 nM. Also, the half-maximal inhibitory concentration (IC50) against CDK9/cyclinT1 complex is > 50000 nM.

Consider `CP(C)(=O)c1cccc2c(-c3nc(NCC4CC4CO)ncc3C(F)(F)F)c[nH]c12` (single isomer, unassigned) [Compound 144], for which, in the data set on Caco-2 cells, the “ER (efflux rate)” value worked out at 12.7; the “Papp(B-A)” value is given as 36.73 10^−6, cm/s; the “Papp(A-B)” value is listed as 2.89 10^−6, cm/s. Besides, the IC50 in data set [1] lay within 20 to 200 nM. In data set [2], this molecule displayed an IC50 of 20 to 200 nM. The IC50 against CDK9/cyclinT1 complex is > 50000 nM.

As to `CP(C)(=O)c1cccc2c(-c3nc(NC45CC(O)(C4)C5)ncc3C(F)(F)F)c[nH]c12` [Compound 174, (3-(2-((3-hydroxybicyclo[1.1.1]pentan-1-yl)amino)-5-(trifluoromethyl)pyrimidin-4-yl)-1H-indole-7-yl)dimethylphosphine oxide], in data set [3], the Papp B→A at 2 h, 5 μM turned out to be 34.8 ×10⁻⁶ cm/s; the efflux ratio at 2 h, 5 μM was determined as 17.1; the Papp A→B at 2 h, 5 μM was found to be 2.03 ×10⁻⁶ cm/s. Besides, the 50% inhibitory concentration (IC50) in data set [1] (Homo sapiens, HCC70, 72 h) was < 20 nM. The IC50 in data set [2] is < 20 nM. The IC50 against CDK9/cyclinT1 complex fell in the range of 5000 to 50000 nM.

For the molecule `CC(O)[C@H](C)Nc1ncc(C(F)(F)F)c(-c2c[nH]c3c(P(C)(C)=O)cccc23)n1` (single isomer, unassigned) [Compound 129], in data set [3], the Papp B→A at 2 h, 5 μM is 32.4 ×10⁻⁶ cm/s; the efflux ratio at 2 h, 5 μM came to 6.76; the Papp A→B at 2 h, 5 μM was 4.8 ×10⁻⁶ cm/s. The IC50 in data set [1] (Homo sapiens, HCC70, 72 h) lay within 20 to 200 nM. Besides, in data set [2], the IC50 is < 20 nM. For the same molecule, the IC50 against CDK9/cyclinT1 complex is > 50000 nM.

For the molecule `CC(C)(CO)Nc1ncc(C(F)(F)F)c(-c2c[nH]c3c(P(C)(C)=O)cccc23)n1` [Compound 85, (3-(2-((1-hydroxy-2-methylpropan-2-yl)amino)-5-(trifluoromethyl)pyrimidin-4-yl)-1H-indole-7-yl)dimethylphosphine oxide], in data set [3], the basolateral-to-apical permeability (Papp B→A) at 2 h, 5 μM came to 21.3 ×10⁻⁶ cm/s. Moreover, the efflux ratio at 2 h, 5 μM in data set [3] was 2.77. Moreover, the Papp A→B at 2 h, 5 μM in data set [3] was determined as 7.69 ×10⁻⁶ cm/s. Also, the 50% inhibitory concentration (IC50) in data set [1] (Homo sapiens, HCC70, 72 h) was 20 to 200 nM; in data set [2], < 20 nM; on CDK9/cyclinT1 complex, > 50000 nM.

In data set [3], `CP(C)(=O)c1cccc2c(-c3nc(NC4(CO)CCC4)ncc3C(F)(F)F)c[nH]c12` [Compound 168, (3-(2-((1-(hydroxymethyl)cyclobutyl)amino)-5-(trifluoromethyl)pyrimidin-4-yl)-1H-indole-7-yl)dimethylphosphine oxide] returned a Papp B→A at 2 h, 5 μM of 17.1 ×10⁻⁶ cm/s. Moreover, the efflux ratio at 2 h, 5 μM in data set [3] worked out at 2.14. The molecule also showed a Papp A→B at 2 h, 5 μM in data set [3] of 7.99 ×10⁻⁶ cm/s. Also, the IC50 in data set [1] (Homo sapiens, HCC70, 72 h) was 20 to 200 nM; in data set [2] it was < 20 nM; against CDK9/cyclinT1 complex, > 50000 nM.

Molecule `CP(C)(=O)c1cccc2c(-c3nc(N[C@@H]4CC[C@H]4O)ncc3C(F)(F)F)c[nH]c12` [Compound 153, (3-(2-(((1R,2R)-2-hydroxycyclobutyl)amino)-5-(trifluoromethyl)pyrimidin-4-yl)-1hydro-indole-7-yl)dimethylphosphine oxide] had a Papp B→A at 2 h, 5 μM in data set [3] of 24.8 ×10⁻⁶ cm/s. Also, in data set [3], the efflux ratio at 2 h, 5 μM came to 5.94. The Papp A→B at 2 h, 5 μM in data set [3] was 4.17 ×10⁻⁶ cm/s. Further, the IC50 was < 20 nM in data set [1] (Homo sapiens, HCC70, 72 h); < 20 nM in data set [2]; > 50000 nM against CDK9/cyclinT1 complex.

Regarding `CP(C)(=O)c1cccc2c(-c3nc(N[C@H]4CC[C@@H]4O)ncc3C(F)(F)F)c[nH]c12` [Compound 154, (3-(2-(((1S,2S)-2-hydroxycyclobutyl)amino)-5-(trifluoromethyl)pyrimidin-4-yl)-1hydro-indole-7-yl)dimethylphosphine oxide], in data set [3], the Papp B→A at 2 h, 5 μM amounted to 26.4 ×10⁻⁶ cm/s; the efflux ratio at 2 h, 5 μM is 5.97; the Papp A→B at 2 h, 5 μM came out at 4.42 ×10⁻⁶ cm/s. Further, the half-inhibitory concentration (IC50) in data set [1] (Homo sapiens, HCC70, 72 h) was < 20 nM. Also, the IC50 in data set [2] was < 20 nM. On CDK9/cyclinT1 complex, the IC50 is 5000 to 50000 nM.
